Results from PubChem BioAssay (NCI).
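Cultured in 96-well plates, cells were exposed to test compound for 48 hours across five concentrations. Definition used: TGI = concentration required for complete inhibition of growth.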

Key:
Experiment in all cases: NCI tumour cell line growth inhibition, 48 h
HCT-15 colon = system: HCT-15 colon
RXF 393 renal = system: RXF 393 renal
TK-10 renal = system: TK-10 renal
SR leukemia = system: SR leukemia
SF-295 CNS = system: SF-295 CNS
NCI-H522 lung = system: NCI-H522 lung
A498 renal = system: A498 renal
MOLT-4 leukemia = system: MOLT-4 leukemia
HCC-2998 colon = system: HCC-2998 colon
PC-3 prostate = system: PC-3 prostate
UO-31 renal = system: UO-31 renal
DU-145 prostate = system: DU-145 prostate
SK-MEL-5 melanoma = system: SK-MEL-5 melanoma
SK-MEL-28 melanoma = system: SK-MEL-28 melanoma
OVCAR-3 ovarian = system: OVCAR-3 ovarian
UACC-62 melanoma = system: UACC-62 melanoma
MCF7 breast = system: MCF7 breast
LOX IMVI melanoma = system: LOX IMVI melanoma
ACHN renal = system: ACHN renal
UACC-257 melanoma = system: UACC-257 melanoma
NCI-H23 lung = system: NCI-H23 lung
NCI/ADR-RES ovarian = system: NCI/ADR-RES ovarian
KM12 colon = system: KM12 colon
OVCAR-4 ovarian = system: OVCAR-4 ovarian
EKVX NSCLC = system: EKVX NSCLC
OVCAR-5 ovarian = system: OVCAR-5 ovarian
OVCAR-8 ovarian = system: OVCAR-8 ovarian
NCI-H226 lung = system: NCI-H226 lung
U251 CNS = system: U251 CNS
MDA-MB-435 = system: MDA-MB-435
MDA-N = system: MDA-N
MDA-MB-231 breast = system: MDA-MB-231 breast
SK-OV-3 ovarian = system: SK-OV-3 ovarian
RPMI-8226 leukemia = system: RPMI-8226 leukemia
SF-268 CNS = system: SF-268 CNS
HL-60(TB) leukemia = system: HL-60(TB) leukemia
BT-549 breast = system: BT-549 breast
SNB-19 CNS = system: SNB-19 CNS
786-0 renal = system: 786-0 renal
CCRF-CEM leukemia = system: CCRF-CEM leukemia
SN12C renal = system: SN12C renal
HS 578T breast = system: HS 578T breast
M14 melanoma = system: M14 melanoma
SNB-75 CNS = system: SNB-75 CNS
HT29 colon = system: HT29 colon
HCT-116 colon = system: HCT-116 colon
K-562 leukemia = system: K-562 leukemia
HOP-62 NSCLC = system: HOP-62 NSCLC
MALME-3M melanoma = system: MALME-3M melanoma
IGROV1 ovarian = system: IGROV1 ovarian
SF-539 CNS = system: SF-539 CNS
HOP-92 NSCLC = system: HOP-92 NSCLC
CAKI-1 renal = system: CAKI-1 renal
SW-620 colon = system: SW-620 colon
COLO 205 colon = system: COLO 205 colon
NCI-H460 lung = system: NCI-H460 lung
A549 NSCLC = system: A549 NSCLC
T-47D breast = system: T-47D breast
SK-MEL-2 melanoma = system: SK-MEL-2 melanoma

In the case of `CC(Oc1ccc(Cl)cc1Cl)C(=O)NN1C(=O)CSC1c1ccccc1` (stereo not drawn), the TGI (HCT-15 colon) is reported as over 100 µM, the TGI (RXF 393 renal) is reported as over 100 µM and the TGI (TK-10 renal) is reported as over 100 µM. It also gave a TGI (SR leukemia) of 19.2 µM, a TGI (SF-295 CNS) of over 100 µM and a TGI (NCI-H522 lung) of over 100 µM. It also gave a TGI (A498 renal) of over 100 µM, a TGI (MOLT-4 leukemia) of over 100 µM and a TGI (HCC-2998 colon) of over 100 µM. It also gave a TGI (PC-3 prostate) of over 100 µM, a TGI (UO-31 renal) of over 100 µM and a TGI (DU-145 prostate) of over 100 µM. The TGI (SK-MEL-5 melanoma) was over 100 µM, the TGI (SK-MEL-28 melanoma) was over 100 µM and the TGI (OVCAR-3 ovarian) was over 100 µM. For the same compound, the TGI (UACC-62 melanoma) was over 100 µM, the TGI (MCF7 breast) was over 100 µM and the TGI (LOX IMVI melanoma) was over 100 µM. The TGI (ACHN renal) was over 100 µM, the TGI (UACC-257 melanoma) was over 100 µM and the TGI (NCI-H23 lung) was over 100 µM. It also gave a TGI (NCI/ADR-RES ovarian) of over 100 µM, a TGI (KM12 colon) of over 100 µM and a TGI (OVCAR-4 ovarian) of over 100 µM. For the same compound, the TGI (EKVX NSCLC) was over 100 µM, the TGI (OVCAR-5 ovarian) was over 100 µM and the TGI (OVCAR-8 ovarian) was over 100 µM. It also gave a TGI (NCI-H226 lung) of 64.1 µM, a TGI (U251 CNS) of over 100 µM and a TGI (MDA-MB-435) of over 100 µM. The TGI (MDA-N) was over 100 µM, the TGI (MDA-MB-231 breast) was over 100 µM and the TGI (SK-OV-3 ovarian) was over 100 µM. It also gave a TGI (RPMI-8226 leukemia) of over 100 µM, a TGI (SF-268 CNS) of over 100 µM and a TGI (HL-60(TB) leukemia) of 77.9 µM. The TGI (BT-549 breast) was 46.5 µM, the TGI (SNB-19 CNS) was over 100 µM and the TGI (786-0 renal) was over 100 µM. For the same compound, the TGI (CCRF-CEM leukemia) was over 100 µM, the TGI (SN12C renal) was over 100 µM and the TGI (HS 578T breast) was over 100 µM. It also gave a TGI (M14 melanoma) of over 100 µM, a TGI (SNB-75 CNS) of over 100 µM and a TGI (HT29 colon) of over 100 µM. The TGI (HCT-116 colon) was over 100 µM, the TGI (K-562 leukemia) was over 100 µM and the TGI (HOP-62 NSCLC) was over 100 µM. It also gave a TGI (MALME-3M melanoma) of over 100 µM, a TGI (IGROV1 ovarian) of over 100 µM and a TGI (SF-539 CNS) of over 100 µM. It also gave a TGI (HOP-92 NSCLC) of 83.8 µM, a TGI (CAKI-1 renal) of 40 µM and a TGI (SW-620 colon) of over 100 µM. The TGI (COLO 205 colon) was over 100 µM, the TGI (NCI-H460 lung) was over 100 µM and the TGI (A549 NSCLC) was over 100 µM. It also gave a TGI (T-47D breast) of over 100 µM and a TGI (SK-MEL-2 melanoma) of over 100 µM.

`CC(C)C(C/C=C1\CC(CO)(COC(=O)C(C)(C)C)OC1=O)C(C)C` (stereo not drawn) showed a TGI (HCT-15 colon) of 29.8 µM, a TGI (RXF 393 renal) of 33.5 µM and a TGI (TK-10 renal) of 21.1 µM. It also gave a TGI (SR leukemia) of over 100 µM, a TGI (SF-295 CNS) of 18.1 µM and a TGI (NCI-H522 lung) of 29 µM. It also gave a TGI (A498 renal) of 28.7 µM, a TGI (MOLT-4 leukemia) of 25 µM and a TGI (HCC-2998 colon) of 24.8 µM. The TGI (PC-3 prostate) was 20.9 µM, the TGI (UO-31 renal) was 18.3 µM and the TGI (DU-145 prostate) was 19.6 µM. The TGI (SK-MEL-5 melanoma) was 20 µM, the TGI (SK-MEL-28 melanoma) was 26.4 µM and the TGI (OVCAR-3 ovarian) was 26.4 µM. For the same compound, the TGI (UACC-62 melanoma) was 31.3 µM, the TGI (MCF7 breast) was 37.6 µM and the TGI (LOX IMVI melanoma) was 17.7 µM. For the same compound, the TGI (ACHN renal) was 24.4 µM, the TGI (UACC-257 melanoma) was 32.6 µM and the TGI (NCI-H23 lung) was 19.7 µM. It also gave a TGI (NCI/ADR-RES ovarian) of 32.4 µM, a TGI (KM12 colon) of 28.2 µM and a TGI (OVCAR-4 ovarian) of 31.9 µM. For the same compound, the TGI (EKVX NSCLC) was 24.8 µM, the TGI (OVCAR-5 ovarian) was 25.4 µM and the TGI (OVCAR-8 ovarian) was 31.1 µM. The TGI (NCI-H226 lung) was 19.8 µM, the TGI (U251 CNS) was 29.8 µM and the TGI (MDA-MB-435) was 25.3 µM. The TGI (MDA-N) was 17.6 µM, the TGI (MDA-MB-231 breast) was 21.7 µM and the TGI (SK-OV-3 ovarian) was 29 µM. It also gave a TGI (SF-268 CNS) of 27.7 µM, a TGI (BT-549 breast) of 24.5 µM and a TGI (SNB-19 CNS) of 26 µM. For the same compound, the TGI (786-0 renal) was 14.7 µM, the TGI (CCRF-CEM leukemia) was 42.7 µM and the TGI (SN12C renal) was 19.8 µM. It also gave a TGI (HS 578T breast) of 11.8 µM, a TGI (M14 melanoma) of 29.8 µM and a TGI (SNB-75 CNS) of 15.2 µM. For the same compound, the TGI (HT29 colon) was 49.6 µM, the TGI (HCT-116 colon) was 22.7 µM and the TGI (K-562 leukemia) was 44.9 µM. The TGI (HOP-62 NSCLC) was 20.4 µM, the TGI (MALME-3M melanoma) was 23.5 µM and the TGI (IGROV1 ovarian) was 29.4 µM. It also gave a TGI (SF-539 CNS) of 20.9 µM, a TGI (HOP-92 NSCLC) of 25 µM and a TGI (CAKI-1 renal) of 21.7 µM. For the same compound, the TGI (SW-620 colon) was 17.1 µM, the TGI (COLO 205 colon) was 11.4 µM and the TGI (NCI-H460 lung) was 31 µM. It also gave a TGI (A549 NSCLC) of 16.6 µM, a TGI (T-47D breast) of 34.9 µM and a TGI (SK-MEL-2 melanoma) of 39.5 µM.

`O=C(NNC(=O)c1ccccc1O)c1cccc(Br)c1` showed a TGI (HCT-15 colon) of over 100 µM, a TGI (RXF 393 renal) of over 100 µM and a TGI (TK-10 renal) of over 100 µM. The TGI (SR leukemia) was over 100 µM, the TGI (SF-295 CNS) was over 100 µM and the TGI (NCI-H522 lung) was 83.3 µM. The TGI (A498 renal) was over 100 µM, the TGI (MOLT-4 leukemia) was over 81 µM and the TGI (HCC-2998 colon) was over 100 µM. It also gave a TGI (PC-3 prostate) of over 100 µM, a TGI (UO-31 renal) of over 100 µM and a TGI (DU-145 prostate) of over 100 µM. It also gave a TGI (SK-MEL-5 melanoma) of over 100 µM, a TGI (SK-MEL-28 melanoma) of over 100 µM and a TGI (OVCAR-3 ovarian) of over 100 µM. It also gave a TGI (UACC-62 melanoma) of over 100 µM, a TGI (MCF7 breast) of over 60.3 µM and a TGI (LOX IMVI melanoma) of over 100 µM. The TGI (ACHN renal) was over 100 µM, the TGI (UACC-257 melanoma) was over 100 µM and the TGI (NCI-H23 lung) was over 100 µM. For the same compound, the TGI (NCI/ADR-RES ovarian) was over 100 µM, the TGI (KM12 colon) was over 100 µM and the TGI (OVCAR-4 ovarian) was over 100 µM. For the same compound, the TGI (EKVX NSCLC) was over 100 µM, the TGI (OVCAR-5 ovarian) was over 100 µM and the TGI (OVCAR-8 ovarian) was over 100 µM. The TGI (NCI-H226 lung) was over 100 µM, the TGI (U251 CNS) was over 100 µM and the TGI (MDA-MB-435) was over 100 µM. It also gave a TGI (MDA-N) of over 100 µM, a TGI (MDA-MB-231 breast) of over 77.7 µM and a TGI (SK-OV-3 ovarian) of over 100 µM. The TGI (RPMI-8226 leukemia) was over 100 µM, the TGI (SF-268 CNS) was over 100 µM and the TGI (HL-60(TB) leukemia) was over 100 µM. For the same compound, the TGI (BT-549 breast) was over 100 µM, the TGI (SNB-19 CNS) was over 100 µM and the TGI (786-0 renal) was over 100 µM. The TGI (SN12C renal) was over 100 µM, the TGI (HS 578T breast) was over 100 µM and the TGI (M14 melanoma) was over 100 µM. It also gave a TGI (SNB-75 CNS) of over 100 µM, a TGI (HT29 colon) of over 100 µM and a TGI (HCT-116 colon) of over 100 µM. For the same compound, the TGI (K-562 leukemia) was over 100 µM, the TGI (HOP-62 NSCLC) was over 100 µM and the TGI (MALME-3M melanoma) was over 100 µM. The TGI (IGROV1 ovarian) was over 100 µM, the TGI (SF-539 CNS) was over 100 µM and the TGI (CAKI-1 renal) was over 100 µM. The TGI (SW-620 colon) was over 100 µM, the TGI (COLO 205 colon) was over 100 µM and the TGI (NCI-H460 lung) was over 100 µM. It also gave a TGI (A549 NSCLC) of over 100 µM, a TGI (T-47D breast) of over 100 µM and a TGI (SK-MEL-2 melanoma) of over 100 µM.
